How the values were obtained:
Assay type in all cases: cell-based
HCT116 cells = assay: Proliferation assay; details: Homo sapiens, HCT-116, 96 h, read-out: Cell EC50 HCT 116
HeLa S3 cells = assay: Proliferation assay; details: Homo sapiens, HeLa S3, 96 h, read-out: Cell EC50 HeLa
HT29 cells = assay: Proliferation assay; details: Homo sapiens, HT-29, 96 h, read-out: Cell EC50 HT29
[1] = tested on: monopolar spindle formation; assay: Spindle morphology by indirect immunofluorescence; details: cells arrested in metaphase

SMILES | EC50 (HCT116 cells) [nM] | EC50 (HeLa S3 cells) [nM] | EC50 (HT29 cells) [nM] | concentration up to which no significant monopolarity resulted [1] [nM]
Cc1cc(Nc2cc(N3CCN(C)CC3)nc(Sc3ccc(NC(=O)C4CC4)cc3)n2)[nH]n1 [Compound 32, VX680] | 15.8 | 16.4 | 119 | 
CCN(CCCOc1ccc2c(Nc3cc(CC(=O)Nc4cccc(F)c4)n[nH]3)ncnc2c1)CCOP(=O)(O)O [Compound 33, AZD1152] | 17.4 | 3.8 | 239 | > 500
O=C(O)c1ccc(Nc2ncc3c(n2)-c2ccc(Cl)cc2C(c2c(F)cccc2F)=NC3)cc1 [Compound 34, MLN8054] | 50.3 | 214 | 688 | 

— PMC3262907 (ACS Chemical Biology, 2011)
